Test [1] relates to Botrytis gray mold of strawberry. The experiment in a line: Example 1: field application, Botrytis gray mold of strawberry, cool storage shelf-life evaluation. It counts as in vivo. The settings on record: for % Control: 7 day storage, relative to untreated check. Here is the method: (§1) All examples are conducted under field conditions using accepted grower practices. The mixtures of I and II are applied to field grown plants, not as a post harvest berry treatment.
(§2) The use of corrected means is standard practice in field evaluations of pesticides. Corrected means are calculated as follows: [formula]
(§3) In the following examples, Fungicide A=a mixture of cyprodinil (I) and fludioxonil (II) (mixing ratio 1.5:1) applied as a 62.5% by weight water dispersible granule (WG) formulation.
Performance of Fungicide a Against Botrytis Gray Mold of Strawberry. Fungicide A is applied in the field; berries are then harvested and placed into cool storage for shelf-life evaluations (no additional sprays were made after harvest).

Test [2] deals with Botrytis gray mold of red raspberry. The experiment in a line: Example 6: field application, Botrytis gray mold of red raspberry, storage evaluation. The test is classed as in vivo. Here is the method: as §1, §2, §3
Fungicide A is applied to field grown red raspberry and shelf-life evaluations made.
Healthy berries are harvested from each treatment and placed into storage and evaluated for Botrytis control (see table below).

The structures appear in SMILES notation.

As for `O=C1C2CC=CCC2C(=O)N1SC(Cl)(Cl)Cl` (stereo not drawn) [Captan, captan], the entries for the “% Control” value in test [1] (inoculated) and in test [1] (non-inoculated) were 28% and 70%, respectively. In test [1] (strawberry variety 'Chandler', inoculated), the “% Pest Incidence Fruit Rating 7 Day Storage Rating Inoculated” value was 51%. Also, the “% Pest Incidence Fruit Rating 7 Day Storage Rating Non-inoculated” value in test [1] (strawberry variety 'Chandler', non-inoculated) is recorded as 6%. For the same compound, the “% Botrytis Infect Berries (6 Day Storage Rating)” value in test [2] is listed as 88.2%. The “% Botrytis Disease Control (6 Day Storage Rating)” value in test [2] (relative to untreated check) worked out at 7%.
